Test results taken from patent US5773239A, “Mannosidase inhibitors, process for their preparation and their use as therapeutic agents” (Mount Sinai Hospital Corporation., priority 1995, dated 1998).

Assays:
bone marrow cells = experiment: Bone marrow cell proliferation assay; assay type: in vivo, C57B1/6J mice; settings: 10 ug/injection i.p. twice daily, four days; mean +/- S.E. of 4 experiments
Protocol: Pathogen-free C57B1/6J mice, 8-14 weeks old were maintained according to NIH ethical guidelines. Groups of 2-3 mice received intraperitoneal injections of the PBS, SW or designated analog twice daily for 4 days. […] Eighteen hours after the last SW injection, mice were sacrificed and BM cells were harvested. Marrow cell suspensions were prepared under sterile conditions using femurs and tibias of both legs from each donor. Bone marrow (BM) cells were flushed from the marrow cavities with ice-cold RPMI 1640, washed and resuspended at desired concentrations in RPMI-1640 supplemented with 5% FCS, penicillin (100 U/ml) and streptomycin (100 μg/ml). Cell viability was monitored by staining with trypan blue. The ability of the analogues to stimulate BM proliferation was measured by two methods. First, cellularity was determined by directly counting BM cells after they were flushed from the tibias and femurs. Second, enhancement in proliferation was assessed by the increase in the proportion of BM progenitor cells present in the BM preparations as measured by colony formation in soft agar (CFU). BM cells were processed according to the procedures of the GIBCO-BRL Mouse Bone Marrow Stem Cell Proliferation Kit, which employs suspensions of mononuclear cells in a semi-solid methylcellulose medium containing FCS. 2-mercaptoethanol and the growth factors, interleukin-3 (IL-3) (75 U/ml) and erythropoietin (20 U/ml). The plates were incubated for 10-14 days at 37° C. in a humidified atmosphere of 5% CO2 and 95% air, and colonies consisting of at least 40 cells were enumerated using an inverted microscope. The potential colonies that form in the semi-solid medium are the granulocyte, erythrocyte, monocyte, megakaryocyte (ie. CFU-GEMM); the granulocyte, macrophage (ie. CFU-GM), and the burst forming unit-erythroid(ie BFUe).
Mice were given twice daily intraperitoneal injections of PBS, SW or the analogues at 10 ug/injection. After four days of injections, BM cells were flushed from the femurs and tibias and counted. CFUs growing in soft agar consisting of at least 40 cells were enumerated. The results are the mean +/-S.E. of 4 experiments.

B16F10 melanoma cells [1] = experiment: Lung colonization assay; assay type: in vivo, C57B1/6J mice; settings: for Survivors at day 28: injected i.v.; for survival of mice 28 days after injection of treated tumor cells: versus 2-toluoyloxy-SW treated or untreated B16F10 cells
Protocol: B16F10 melanoma cells were maintained in log-phase growth in MEM plus 10% FCS (Gibco) either untreated or treated for 48 hr with SW or analogues of SW. Cells were harvested with trypsin/EDTA (Gibco), washed and 10^5 melanoma cells in 100 μl of phosphate buffered saline (PBS) were injected into the lateral tail vein of male C57B1/6J mice. The lungs were removed from the mice and tumor nodules were counted at death or on day 28 when the experiment was terminated.
B16F10 melanoma cells were injected into the lateral tail vein of C57B1/6 mice at 10^5 cells/mouse. […] The experiment was terminated on day 28 and lung colonies in the mice were counted.

[2] = target: T1, rat liver Golgi α-mannosidase II (Rattus norvegicus, UniProt P28494); experiment: Rat liver Golgi α-mannosidase II assay; assay type: biochemical; settings: para-nitrophenyl α-mannose, pH 5.6; read-out: IC50 ManII
T1 construct: The assay for rat liver Golgi α-mannosidase II; from tissue; host or cells: rat liver (Golgi)
T1 sequence (P28494 1-1148): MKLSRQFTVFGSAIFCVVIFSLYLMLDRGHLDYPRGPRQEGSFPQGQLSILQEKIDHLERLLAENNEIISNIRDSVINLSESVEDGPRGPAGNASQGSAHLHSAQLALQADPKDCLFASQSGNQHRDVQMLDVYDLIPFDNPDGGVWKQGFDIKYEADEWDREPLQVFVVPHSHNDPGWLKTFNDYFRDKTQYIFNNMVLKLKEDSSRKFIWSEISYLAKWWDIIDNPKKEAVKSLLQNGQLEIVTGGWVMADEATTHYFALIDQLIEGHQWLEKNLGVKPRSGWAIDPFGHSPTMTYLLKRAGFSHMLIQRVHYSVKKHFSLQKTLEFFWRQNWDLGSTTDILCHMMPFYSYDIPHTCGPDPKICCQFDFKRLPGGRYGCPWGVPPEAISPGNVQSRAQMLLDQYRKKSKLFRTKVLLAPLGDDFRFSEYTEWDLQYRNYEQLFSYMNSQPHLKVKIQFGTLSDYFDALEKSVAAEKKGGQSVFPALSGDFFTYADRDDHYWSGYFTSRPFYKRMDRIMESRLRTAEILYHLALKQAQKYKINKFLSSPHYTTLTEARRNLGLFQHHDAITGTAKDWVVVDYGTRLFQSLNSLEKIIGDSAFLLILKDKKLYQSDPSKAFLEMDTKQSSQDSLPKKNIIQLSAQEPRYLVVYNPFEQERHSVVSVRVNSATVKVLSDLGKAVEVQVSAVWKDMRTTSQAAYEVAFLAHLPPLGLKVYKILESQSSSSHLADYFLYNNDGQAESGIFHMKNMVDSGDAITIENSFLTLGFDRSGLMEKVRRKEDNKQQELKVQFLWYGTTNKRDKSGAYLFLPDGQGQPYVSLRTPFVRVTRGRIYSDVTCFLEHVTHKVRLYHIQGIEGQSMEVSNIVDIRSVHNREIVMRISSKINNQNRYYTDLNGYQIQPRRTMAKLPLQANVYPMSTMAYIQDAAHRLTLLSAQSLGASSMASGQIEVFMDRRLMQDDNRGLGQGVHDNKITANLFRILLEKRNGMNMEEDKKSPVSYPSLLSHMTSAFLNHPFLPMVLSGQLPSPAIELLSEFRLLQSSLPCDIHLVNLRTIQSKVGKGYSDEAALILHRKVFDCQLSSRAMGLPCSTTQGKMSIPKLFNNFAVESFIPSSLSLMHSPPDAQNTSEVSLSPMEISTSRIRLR
Protocol: The assay for rat liver Golgi α-mannosidase II contained 5 mM para-nitrophenylα-mannose, 40 mM sodium acetate pH 5.6, plus serially diluted test compouunds and mannosidase enzyme in a total volume of 50 ul, in 96 well plates. Plates were incubated 45 min at 37° C., then the reaction was stopped with 50 μl of 0.5M sodium carbonate. […] The lysosomal mannosidase was done in the same procedure but with 40 mM sodium acetate buffer pH 5.0. The numbers in the table are IC50 values in μM for inhibition of mannosidase activity.

MDAY-D2 tumor cells = settings: cited from earlier work
B16F10 melanoma cells [3] = settings: 1000 ng/ml; cited from earlier work
[4] = tumor cells cultured 48 hr with 0.02 ug/ml drug
[5] = tumor cells cultured 48 hr with 0.1 ug/ml drug
[6] = tumor cells cultured 48 hr with 1.0 ug/ml drug

Compound | BM cellularity (bone marrow cells) [cells × 10^7] | CFU (bone marrow cells) [colonies/10^7 cells] | lung colonies (mean ± range) (B16F10 melanoma cells [1]; [4]) | Survivors at day 28 (B16F10 melanoma cells [1]; [4]) | lung colonies (mean ± range) (B16F10 melanoma cells [1]; [5]) | Survivors at day 28 (B16F10 melanoma cells [1]; [5]) | lung colonies (mean ± range) (B16F10 melanoma cells [1]; [6]) | Survivors at day 28 (B16F10 melanoma cells [1]; [6]) | survival of mice 28 days after injection of treated tumor cells (B16F10 melanoma cells [1]) | IC50 [2] [nM] | L-PHA concentration to which cells cultured in the presence of SW are resistant (MDAY-D2 tumor cells) [µg/mL] | inhibition of organ colonization by B16F10 melanoma cells (B16F10 melanoma cells [3]) [%]
O=C(OC1CN2CCCC(O)C2C1O)c1ccccc1 (centres unmarked) [2-benzoyloxy-SW] | 5.77 ± 0.00 | 421 ± 44 | – | – | – | – | – | – | – | – | – | –
CCCC(=O)OC1CN2CCCC(O)C2C1O (centres unmarked) [2-butanoyloxy-SW] | 3.80 ± 0.91 | 545 ± 59 | – | – | – | – | – | – | – | – | – | –
CCCCCCCC(=O)OC1CN2CCCC(O)C2C1O (centres unmarked) [2-octanoyloxy-SW] | – | 482 ± 22 | 9 (5-17) | 3/5 | 13 (8-20) | 3/5 | 1 (0-2) | 2/5 | significantly higher | – | – | –
O=C(OC1CN2CCCC(O)C2C1O)c1ccc([N+](=O)[O-])cc1 (centres unmarked) [2-p-nitrobenzoyloxy-SW] | 3.60 ± 0.42 | 380 ± 7 | – | – | – | – | – | – | – | – | – | –
Cc1ccc(C(=O)O[C@@H]2CN3CCC[C@@H](O)[C@@H]3[C@@H]2O)cc1 [2-toluoyloxy-SW] | 3.40 ± 0.25 | 384 ± 25 | – | – | > 100 | 0/5 | > 100 | 0/5 | – | – | – | –
OC1CN2C[C@@H](O)[C@@H](O)[C@H]2[C@H](O)C1O (some centres unmarked) [6,7-dihydroxy-SW] | 5.20 ± 0.03 | 538 ± 5 | – | – | – | – | – | – | – | – | – | –
CCCCCCCCCCCCCC(=O)OC1CCCN2CC(O)C(O)C12 (centres unmarked) [8-myristinoyloxy-SW] | 4.80 ± 0.24 | 226 ± 6 | – | – | – | – | – | – | – | – | – | –
CCCCCCCCCCCCCCCC(=O)OC1CCCN2CC(O)C(O)C12 (centres unmarked) [8-palmitoyloxy-SW] | 5.10 ± 0.57 | 553 ± 32 | – | – | – | – | – | – | – | – | – | –
O[C@H]1[C@H]2[C@H](O)CCCN2C[C@H]1O [SW, Swainsonine, reference compound] | 4.50 ± 0.42 | 540 ± 34 | 23 (15-31) | 2/5 | 5 (2-10) | 4/5 | 3 (0-4) | 4/5 | significantly higher | 100 | > 100 | > 90
